Experimental data as given in patent US12209144B2, “Cyclic peptides as proprotein convertase subtilisin/kexin type 9 (PCSK9) inhibitors for the treatment of metabolic disorders” (Novartis AG, priority 2018, dated 2025).
pIC50: −log10 of the molar value. Bridge positions count the residues as written; N and C are the ends. Square brackets hold non-standard residues; d marks the D form. Peptide text beside a SMILES is read from it. ξ: configuration not given here. Phe(3,4-Cl2) = N[C@@H](Cc1ccc(Cl)c(Cl)c1)C(=O)O; Bip = N[C@@H](Cc1ccc(-c2ccccc2)cc1)C(=O)O; Phe(4-Cl) = N[C@@H](Cc1ccc(Cl)cc1)C(=O)O; hSer = N[C@@H](CCO)C(=O)O; NMeA = CN[C@@H](C)C(=O)O; ξD = NC(CC(=O)O)C(=O)O

target: human PCSK9 (Homo sapiens, UniProt Q8NBP7); test: PCSK9 ligand binding assay (TR-FRET): interference with binding of human PCSK9 to human LDLR; conditions: PCSK9 FRET assay, efficacy (Amax); 0% = DMSO, 100% = 1 uM unlabeled human PCSK9
Protocol: The activity of cyclic polypeptides according to the disclosure as PCSK9 can be assessed using a time resolved fluorescence resonance energy transfer (TR-FRET) assay. This time resolved fluorescence resonance energy transfer (TR-FRET) assay measures the ability of a cyclic polypeptides of the disclosure to interfere with the binding of human PCSK9 to human LDLR, providing measures of both potency (IC50) and efficacy (Amax).
Solutions of varying concentrations are prepared by diluting a cyclic polypeptide of the disclosure in dimethylsulfoxide (DMSO) and the resulting solutions are pipetted into a plate. DMSO is used as a negative control. An intermediate plate is prepared in by transferring a known amount of each polypeptide solution and of the control from the compound plate into a corresponding well containing assay buffer and mixing thoroughly. A third plate is then prepared to be used for the assay by adding Human PCSK9 Alexa Fluor 647, followed by a known amount of each solution from the intermediate plate. Unlabeled human PCSK9 in assay buffer containing DMSO is used as a positive control for the assay. Following incubation, Human LDLR extracellular domain-Europium Kryptate is added to each well of the assay plate and the resulting mixture is incubated for an additional period of time. The TR-FRET signal is measured and the FRET ratio (FRET/Europium) is used to calculate the IC50 and Amax of the cyclic polypeptides.
The PCSK9 binding of the cyclic polypeptides of the disclosure were measured using a time resolved fluorescence resonance energy transfer (TR-FRET) assay. This time resolved fluorescence resonance energy transfer (TR-FRET) assay measures the ability of a cyclic polypeptide of the disclosure to interfere with the binding of human PCSK9 to human LDLR, providing measures of both potency (IC50) and efficacy (Amax).
• Human PCSK9 • Human PCSK9 Alexa Fluor 647 • Human LDLR extracellular domain-Europium Kryptate • Proxi plate-low volume assay plate (PerkinElmer #6008280) • Greiner V-bottom (Greiner BioOne #781280) • Assay Buffer • 20 mM HEPES, pH 7.5 • 150 mM NaCl • 1 mM CaCl2 • 0.01% v/v Tween20 • 0.01% w/v BSA
A master compound plate was prepared in a Greiner V bottom plate by diluting cyclic polypeptides of the disclosure in dimethylsulfoxide to the correct concentration for the desired top concentration based on the desired final concentration: for a 30 uM final concentration the master plate concentration is 1.5 mM (68 uL DMSO+12 uL 10 mM of a cyclic polypeptide of the disclosure), for a 10 uM final concentration the master plate concentration is 0.5 mM (76 uL DMSO+4 uL 10 mM of a cyclic polypeptide of the disclosure), for a 3 uM final concentration the master plate concentration is 150 uM (69 uL DMSO+1 uL 10 mM a cyclic peptide of the disclosure). These solutions were pipetted into columns 1 and 11 of the compound plate. Threefold serial dilutions were generated in columns 2-10 and 12-20 of the compound plate by transferring 10 uL into 20 μL of DMSO. Columns 21 and 22 of the compound plate were negative controls containing DMSO alone.
An intermediate plate was generated in a Greiner V bottom plate by transferring 8 uL from each well of the master plate into a corresponding well containing 92 μL of assay buffer and mixing thoroughly.
A Proxi plate-low volume assay plate was used for the assay. To all wells of the plate was added 10 μL of 16 nM Human PCSK9 Alexa Fluor 647, followed by 5 uL from the intermediate plate. […] Following a 30 minute incubation, 5 μL of 4 nM Human LDLR extracellular domain-Europium Kryptate was added and the mixture was incubated for an additional 2 hours.
The TR-FRET signal was measured on an EnVision or PheraStar instrument with a […] delay, 330 nm excitation and 665 nm emission (FRET), and 330 nm excitation and 615 nm (Europium). The FRET ratio (FRET/Europium) was used for calculations. […]

human PCSK9, sequence (Q8NBP7 153-692): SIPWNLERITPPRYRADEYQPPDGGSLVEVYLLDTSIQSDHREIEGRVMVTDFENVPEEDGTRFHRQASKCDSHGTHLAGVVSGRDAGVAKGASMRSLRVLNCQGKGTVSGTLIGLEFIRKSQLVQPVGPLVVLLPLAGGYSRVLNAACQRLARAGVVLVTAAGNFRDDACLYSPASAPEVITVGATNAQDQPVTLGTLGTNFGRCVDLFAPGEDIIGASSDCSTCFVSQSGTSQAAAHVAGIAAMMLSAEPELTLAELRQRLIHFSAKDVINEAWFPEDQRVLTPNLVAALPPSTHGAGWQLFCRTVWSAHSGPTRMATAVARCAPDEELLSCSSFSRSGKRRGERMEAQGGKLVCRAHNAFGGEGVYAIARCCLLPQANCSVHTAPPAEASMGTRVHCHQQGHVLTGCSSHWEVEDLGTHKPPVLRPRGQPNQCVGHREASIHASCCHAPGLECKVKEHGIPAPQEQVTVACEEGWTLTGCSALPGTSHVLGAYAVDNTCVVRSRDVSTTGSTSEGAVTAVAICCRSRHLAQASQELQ
human PCSK9, sequence (Q8NBP7 31-152 partner limits assumed): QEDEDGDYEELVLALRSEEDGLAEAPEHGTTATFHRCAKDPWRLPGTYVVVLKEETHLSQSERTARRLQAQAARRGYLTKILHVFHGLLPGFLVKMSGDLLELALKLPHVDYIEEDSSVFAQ

Structure (SMILES)	Maximum % inhibition [%]
CC(C)[C@@H]1NC(=O)[C@H](Cc2ccccc2)NC(=O)CSC[C@@H](C(=O)NCC(N)=O)NC(=O)[C@@H]2CCCN2C(=O)[C@H](C)NC(=O)[C@H](CCCCN)NC(=O)[C@H](C)N(C)C(=O)[C@H](Cc2ccc(-c3ccccc3)cc2)NC(=O)[C@H](C)N(C)C(=O)[C@H](Cc2ccccc2)NC(=O)[C@H]([C@@H](C)O)NC(=O)[C@H]([C@@H](C)O)NC(=O)[C@H](CC(N)=O)NC1=O [Example 1-23, Ac*-F-V-N-T-T-F-(N-Me)A-B-(N-Me)A-K-A-P-C*-G-NH2] ({CH2CO}-FVNTTF[NMeA][Bip][NMeA]KAPCG-NH2; thioether N-13)	36
CC(C)[C@@H]1NC(=O)[C@H](Cc2ccccc2)NC(=O)CSC[C@@H](C(=O)NCC(N)=O)NC(=O)[C@@H]2CCCN2C(=O)[C@H](C)NC(=O)[C@H](CCC(=O)O)NC(=O)[C@H](C)N(C)C(=O)[C@H](Cc2ccc(-c3ccccc3)cc2)NC(=O)[C@H](C)N(C)C(=O)[C@H](Cc2ccccc2)NC(=O)[C@H]([C@@H](C)O)NC(=O)[C@H]([C@@H](C)O)NC(=O)[C@H](CO)NC1=O [Example 1-24, Ac*-F-V-S-T-T-F-(N-Me)A-B-(N-Me)A-E-A-P-C*-G-NH2] ({CH2CO}-FVSTTF[NMeA][Bip][NMeA]EAPCG-NH2; thioether N-13)	70
CC(C)[C@@H]1NC(=O)[C@H](Cc2ccccc2)NC(=O)CSC[C@@H](C(=O)NCC(N)=O)NC(=O)[C@@H]2CCCN2C(=O)[C@H](CO)NC(=O)[C@H](CCC(=O)O)NC(=O)[C@H](C)N(C)C(=O)[C@H](Cc2ccc(-c3ccccc3)cc2)NC(=O)[C@H](C)N(C)C(=O)[C@H](Cc2ccc(-c3ccccc3)cc2)NC(=O)[C@H]([C@@H](C)O)NC(=O)[C@H]([C@@H](C)O)NC(=O)[C@H](CO)NC1=O [Example 1-25, Ac*-F-V-S-T-T-B-(N-Me)A-B-(N-Me)A-E-S-P-C*-G-NH2] ({CH2CO}-FVSTT[Bip][NMeA][Bip][NMeA]ESPCG-NH2; thioether N-13)	68
CC(C)[C@@H]1NC(=O)[C@H](Cc2ccccc2)NC(=O)CSC[C@@H](C(=O)NCC(N)=O)NC(=O)[C@@H]2CCCN2C(=O)[C@H](CO)NC(=O)[C@H](CCC(=O)O)NC(=O)[C@H](C)N(C)C(=O)[C@H](Cc2ccc(Cl)c(Cl)c2)NC(=O)[C@H](C)N(C)C(=O)[C@H](Cc2ccc(-c3ccccc3)cc2)NC(=O)[C@H]([C@@H](C)O)NC(=O)[C@H]([C@@H](C)O)NC(=O)[C@H](CC(=O)O)NC1=O [Example 1-26, Ac*-F-V-D-T-T-B-(N-Me)A-(3,4-diCl)F-(N-Me)A-E-S-P-C*-G-NH2] ({CH2CO}-FVDTT[Bip][NMeA][Phe(3,4-Cl2)][NMeA]ESPCG-NH2; thioether N-13)	84
C[C@@H]1NC(=O)[C@H](C)N(C)C(=O)[C@H](Cc2ccc(-c3ccccc3)cc2)NC(=O)[C@H](C)N(C)C(=O)[C@H](Cc2ccccc2)NC(=O)[C@H]([C@@H](C)O)NC(=O)[C@H]([C@@H](C)O)NC(=O)[C@H](CC(N)=O)NC(=O)[C@H](CCC(=O)O)NC(=O)[C@H](Cc2ccccc2)NC(=O)CSC[C@@H](C(=O)NCC(N)=O)NC(=O)[C@@H]2CCCN2C(=O)[C@H](CO)NC1=O [Example 1-27, Ac*-F-E-N-T-T-F-(N-Me)A-B-(N-Me)A-A-S-P-C*-G-NH2] ({CH2CO}-FENTTF[NMeA][Bip][NMeA]ASPCG-NH2; thioether N-13)	55

Now from value to compound:

Maximum % inhibition [%]	Structure (SMILES)
50	CC(C)[C@@H]1NC(=O)[C@H](Cc2ccccc2)NC(=O)CSC[C@@H](C(N)=O)NC(=O)[C@@H]2CCCN2C(=O)[C@H](C)NC(=O)[C@@H]2CCCN2C(=O)[C@H](C)N(C)C(=O)[C@H](Cc2ccc(Cl)cc2)NC(=O)[C@H](C)N(C)C(=O)[C@H](Cc2ccccc2)NC(=O)[C@H]([C@@H](C)O)NC(=O)[C@H]([C@@H](C)O)NC(=O)[C@@H]2CCCN2C1=O [Example 2-1, (6S,8aS,14S,17S,20S,23S,26S,29S,31aS,37S,40S,46R,48aS)-23,40-dibenzyl-17-(4-chlorobenzyl)-26,29-bis((R)-1-hydroxyethyl)-37-isopropyl-6,14,15,20,21-pentamethyl-5,8,13,16,19,22,25,28,31,36,39,42,48-tridecaoxohexatetracontahydro-13H-tripyrrolo[1,2-e1:1′,2′-j:1″,2″-k1][1]thia[4,7,10,13,16,19,22,25,28,31,34,37,40]tridecaazacyclodo-tetracontine-46-carboxamide] ({CH2CO}-FVPTTF[NMeA][Phe(4-Cl)][NMeA]PAPC-NH2; thioether N-13)
72	CC(C)[C@@H]1NC(=O)[C@H](Cc2ccccc2)NC(=O)CSC[C@@H](C(N)=O)NC(=O)[C@@H]2CCCN2C(=O)[C@H](C)NC(=O)C(CC(=O)O)NC(=O)[C@H](C)N(C)C(=O)[C@H](Cc2ccc(Cl)cc2)NC(=O)[C@H](C)N(C)C(=O)[C@H](Cc2ccccc2)NC(=O)[C@H]([C@@H](C)O)NC(=O)[C@H]([C@@H](C)O)NC(=O)[C@@H]2CCCN2C1=O (stereo partly drawn) [Example 2-2, Ac*-F-V-P-T-T-F-(N-Me)A-(p-Cl)F-(N-Me)A-D-A-P-C*-NH2] ({CH2CO}-FVPTTF[NMeA][Phe(4-Cl)][NMeA][ξD]APC-NH2; thioether N-13)
75	CC(C)[C@@H]1NC(=O)[C@H](Cc2ccccc2)NC(=O)CSC[C@@H](C(N)=O)NC(=O)[C@@H]2CCCN2C(=O)[C@H](C)NC(=O)C(CC(=O)O)NC(=O)[C@H](C)N(C)C(=O)[C@H](Cc2ccc(Cl)cc2)NC(=O)[C@H](C)N(C)C(=O)[C@H](Cc2ccccc2)NC(=O)[C@H]([C@@H](C)O)NC(=O)[C@H]([C@@H](C)O)NC(=O)[C@H](CCO)NC1=O (stereo partly drawn) [Example 2-3, Ac*-F-V-HomoSer-T-T-F-(N-Me)A-(p-Cl)F-(N-Me)A-D-A-P-C*-NH2] ({CH2CO}-FV[hSer]TTF[NMeA][Phe(4-Cl)][NMeA][ξD]APC-NH2; thioether N-13)
28	CC(C)[C@@H]1NC(=O)[C@H](Cc2ccccc2)NC(=O)CSC[C@@H](C(N)=O)NC(=O)[C@@H]2CCCN2C(=O)[C@H](CCCNC(=N)N)NC(=O)[C@H](CC(=O)O)NC(=O)[C@H](C)N(C)C(=O)[C@H](Cc2ccc(-c3ccccc3)cc2)NC(=O)[C@H](C)N(C)C(=O)[C@H](Cc2ccc(-c3ccccc3)cc2)NC(=O)[C@H]([C@@H](C)O)NC(=O)[C@H]([C@@H](C)O)NC(=O)[C@H](CO)NC1=O [Example 2-4, Ac*-F-V-S-T-T-B-(N-Me)A-B-(N-Me)A-D-R-P-C*-NH2] ({CH2CO}-FVSTT[Bip][NMeA][Bip][NMeA]DRPC-NH2; thioether N-13)
46	CC(C)[C@@H]1NC(=O)[C@H](Cc2ccccc2)NC(=O)CSC[C@@H](C(N)=O)NC(=O)[C@@H]2CCCN2C(=O)[C@H](C)NC(=O)[C@H](CC(N)=O)NC(=O)[C@H](C)N(C)C(=O)[C@H](Cc2ccc(Cl)cc2)NC(=O)[C@H](C)N(C)C(=O)[C@H](Cc2ccccc2)NC(=O)[C@H]([C@@H](C)O)NC(=O)[C@H]([C@@H](C)O)NC(=O)[C@H](C)NC1=O [Example 2-5, Ac*-F-V-A-T-T-F-(N-Me)A-(p-Cl)F-(N-Me)A-N-A-P-C*-NH2] ({CH2CO}-FVATTF[NMeA][Phe(4-Cl)][NMeA]NAPC-NH2; thioether N-13)
83	CC(C)[C@@H]1NC(=O)[C@H]([C@@H](C)O)NC(=O)[C@H]([C@@H](C)O)NC(=O)[C@@H]2CCCN2C(=O)[C@H](C(C)C)NC(=O)[C@H](Cc2ccccc2)NC(=O)CSC[C@@H](C(N)=O)NC(=O)[C@@H]2CCCN2C(=O)[C@H](C)NC(=O)[C@H](CCC(=O)O)NC(=O)[C@H](C)N(C)C(=O)[C@H](Cc2ccc(Cl)cc2)NC(=O)[C@H](C)N(C)C1=O [Example 2-6, Ac*-F-V-P-T-T-V-(N-Me)A-(p-Cl)F-(N-Me)A-E-A-P-C*-NH2] ({CH2CO}-FVPTTV[NMeA][Phe(4-Cl)][NMeA]EAPC-NH2; thioether N-13)

same assay, conditions: TR-FRET; Human PCSK9 Alexa Fluor 647 and Human LDLR extracellular domain-Europium Kryptate

pIC50	Structure (SMILES)
6.39	C[C@@H]1NC(=O)[C@H](C)N(C)C(=O)[C@H](Cc2ccc(-c3ccccc3)cc2)NC(=O)[C@H](C)N(C)C(=O)[C@H](Cc2ccccc2)NC(=O)[C@H]([C@@H](C)O)NC(=O)[C@H]([C@@H](C)O)NC(=O)[C@H](CC(N)=O)NC(=O)[C@H](CCC(=O)O)NC(=O)[C@H](Cc2ccccc2)NC(=O)CSC[C@@H](C(=O)NCC(N)=O)NC(=O)[C@@H]2CCCN2C(=O)[C@H](CO)NC1=O [Example 1-27, Ac*-F-E-N-T-T-F-(N-Me)A-B-(N-Me)A-A-S-P-C*-G-NH2] ({CH2CO}-FENTTF[NMeA][Bip][NMeA]ASPCG-NH2; thioether N-13)
